Assay results from PubChem BioAssay (NCI).
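Five compound concentrations were applied to cells in 96-well plates for 48 hours; endpoints were derived by simple linear interpolation of the resulting dose-response curve. Here, GI50 denotes the concentration required for 50% inhibition of growth. Definition used: TGI = concentration required for complete inhibition of growth.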

Experiments:
Experiment in all cases: DTP human tumour cell line panel, 48 h
UACC-257 melanoma = tested on: UACC-257 melanoma
HCT-15 colon = tested on: HCT-15 colon
HS 578T breast = tested on: HS 578T breast
HCT-116 colon = tested on: HCT-116 colon
RXF 393 renal = tested on: RXF 393 renal
HCC-2998 colon = tested on: HCC-2998 colon
OVCAR-4 ovarian = tested on: OVCAR-4 ovarian
A498 renal = tested on: A498 renal
SF-295 CNS = tested on: SF-295 CNS
MALME-3M melanoma = tested on: MALME-3M melanoma
SF-539 CNS = tested on: SF-539 CNS

Row | SMILES | TGI (UACC-257 melanoma) [µM] | TGI (HCT-15 colon) [µM] | TGI (HS 578T breast) [µM] | TGI (HCT-116 colon) [µM] | TGI (RXF 393 renal) [µM] | TGI (HCC-2998 colon) [µM] | TGI (OVCAR-4 ovarian) [µM] | TGI (A498 renal) [µM] | TGI (SF-295 CNS) [µM] | TGI (MALME-3M melanoma) [µM] | TGI (SF-539 CNS) [µM] | GI50 (HCT-15 colon) [µM] | GI50 (HS 578T breast) [µM] | GI50 (HCT-116 colon) [µM] | GI50 (SF-295 CNS) [µM] | GI50 (HCC-2998 colon) [µM] | GI50 (SF-539 CNS) [µM] | GI50 (OVCAR-4 ovarian) [µM] | GI50 (A498 renal) [µM]
1 | CC(C)(C)OC(=O)NC1CCCC1C(O)(C1=CCCC1)C1=CCCC1 (stereo not drawn) | > 100 | > 100 | > 100 | > 100 | > 100 | > 100 | > 100 | > 100 |  |  |  |  |  |  |  |  |  |  | 
2 | CCOC(=O)CN=C1Nc2ccccc2C(=O)N2CSCC12 (stereo not drawn) | > 100 | > 100 | > 100 | > 100 | > 100 | > 100 | > 100 | > 100 | > 100 | > 100 |  |  |  |  |  |  |  |  | 
3 | N#CC(c1nc2ccccc2s1)c1nc(Cl)ncc1Br (stereo not drawn) | > 100 | > 100 |  | 69.8 | 90.3 |  | > 100 | > 100 | > 100 | > 100 | 82 |  |  |  |  |  |  |  | 
4 | Cc1ccc(S(=O)(=O)NC(=O)NC(Cc2ccccc2)C(=O)O)cc1 (stereo not drawn) | > 100 | > 100 | > 100 | > 100 | > 100 |  | > 100 |  | > 100 | > 100 | > 100 |  |  |  |  |  |  |  | 
5 | CCSCC(=O)N1CCc2c([nH]c3ccccc23)C1=O | > 100 | > 100 | > 100 | > 100 | > 100 | > 100 | > 100 |  | > 100 | > 100 | > 100 |  |  |  |  |  |  |  | 
6 | CC(=O)Nc1ccc(N2C(=O)CS(=O)(=O)C2c2cccc(Oc3ccccc3)c2)cc1 (stereo not drawn) | 33.8 | 39.5 | 79.9 | 35.2 | 39.7 |  | 38.9 |  | 36.7 | 38.8 | 36.4 |  |  |  |  |  |  |  | 
7 | COc1cc2c(cc1OC)C1=Cc3ccc(OC)c(OC)c3C(C#N)N1CC2 (stereo not drawn) | 47.4 | > 100 | > 100 | > 100 |  | 51.1 | > 100 | > 100 | > 100 | 82.9 | > 100 |  |  |  |  |  |  |  | 
8 | NC(CCl)=NC1CN2CCC1CC2 (stereo not drawn) | > 100 | > 100 | > 100 | > 100 | > 100 |  | > 100 | > 100 | > 100 | > 100 | > 100 |  |  |  |  |  |  |  | 
9 | CC1(C)CC(=O)C2=C(C1)NC(SCC(=O)O)=C(C#N)C2c1ccc(Br)cc1 (stereo not drawn) | > 100 | > 100 | > 100 | > 100 | > 100 | > 100 | > 100 | > 100 | > 100 |  |  |  |  |  |  |  |  |  | 
10 | O=c1[nH]c(=S)c2cc3c(=S)[nH]c(=O)n(CCC(c4ccccc4)(c4ccccc4)c4ccccc4)c3nc2n1CCC(c1ccccc1)(c1ccccc1)c1ccccc1 | > 100 | > 100 |  | > 100 |  | > 100 | > 100 | > 100 | > 100 | > 100 |  |  |  |  |  |  |  |  | 
11 | CC(C)=CC(C)C(C(O)CCC1(c2ccoc2)OCCO1)S(=O)(=O)c1ccccc1 (stereo not drawn) | > 100 | > 100 |  | > 100 | > 100 | > 100 | > 100 | > 100 | > 100 | > 100 | > 100 |  |  |  |  |  |  |  | 
12 | O=c1c(/C=C/c2c(O)ccc3ccccc23)nnc2sc(-c3cccc([N+](=O)[O-])c3)nn12 | 51 | > 100 | 56.1 | 32.2 | > 100 |  | 51.6 |  | 82.6 | 47.3 |  |  |  |  |  |  |  |  | 
13 | OCCN1CN(c2nc(N3CN(CCO)C3)nc(N3CN(CCO)C3)n2)C1 | 36.2 | 46.7 | 66.7 | 42 | 44.8 | 41.7 | 85.6 | 96.2 |  | 39.3 | 35 |  |  |  |  |  |  |  | 
14 | O=C(O)C(F)(F)C(F)(F)C(F)(F)C(F)(F)C(=O)O | > 100 | > 100 | > 100 | > 100 | > 100 | > 100 | > 100 | > 100 | > 100 | > 100 |  |  |  |  |  |  |  |  | 
15 | O=C1CSC(c2cccc(Cl)c2)N1c1c(O)c(Cl)cc(Br)c1Cl (stereo not drawn) | 67.4 | 28.3 | > 100 | 28.8 | 35.7 |  | 28.1 | > 100 | > 100 | > 100 | > 100 |  |  |  |  |  |  |  | 
16 | CN(C)c1ccc(/C=N/n2c(-c3ccccc3)nc3ccccc3c2=O)cc1 | > 100 | > 100 | 92.4 | > 100 |  | > 100 | > 100 | > 100 | > 100 | > 100 | > 100 |  |  |  |  |  |  |  | 
17 | C\C=C/C=C/C=C/C(=O)O | > 100 | > 100 |  | > 100 | > 100 | > 100 | > 100 | > 100 | > 100 | > 100 | > 100 |  |  |  |  |  |  |  | 
18 | C/C=C1\CN2CCC34c5ccccc5N(C)C35OCC4(C(=O)OC)C1CC25 (stereo not drawn) | > 100 | > 100 | > 100 | > 100 |  | 29.1 | > 100 | > 100 | > 100 |  | > 100 |  |  |  |  |  |  |  | 
19 | COc1cc(C(=O)O[C@H](C(=O)NCCNC(=O)[C@@H](OC(=O)c2cc(OC)cc3c(C)cccc23)[C@]2(C)CO2)[C@]2(C)CO2)c2cccc(C)c2c1 | 0.343 | 1.33 | > 100 | 0.298 |  | 2.49 | > 100 | 4.35 | 0.793 |  | 0.371 | 0.179 | 0.319 | < 0.0285 | 0.173 | 0.0953 | < 0.0348 | 0.125 | 2.21
20 | NNC(=Nc1ccccc1)SCc1ccccc1 | > 100 | > 100 |  | > 100 | > 100 | > 100 | > 100 | > 100 | > 100 | > 100 | > 100 |  |  |  |  |  |  |  | 
21 | CC(C)=NNc1cnnc2ccc([N+](=O)[O-])cc12 | > 100 | > 100 | > 100 | > 100 | > 100 |  |  |  | > 100 | > 100 | > 100 |  |  |  |  |  |  |  | 
22 | O=C(Nc1ccccc1)c1cc(S(=O)(=O)Nc2n[nH]c(=O)[nH]2)c(SSc2cc(Cl)c(C(=O)Nc3ccccc3)cc2S(=O)(=O)Nc2n[nH]c(=O)[nH]2)cc1Cl | > 100 | > 100 | > 100 | > 100 |  | > 100 | > 100 | > 100 | > 100 | > 100 |  |  |  |  |  |  |  |  | 
